US20170354148A1, “SAFENED HERBICIDAL COMPOSITIONS CONTAINING HALAUXIFEN AND METHODS OF USE THEREOF IN BRASSICA SPECIES” (Dow AgroSciences LLC, priority 2016, published 2017)

Tested on: Spring Argentine canola (Brassica napus, BRSNS)
Assay: Example 3 field trials (Canada), postemergence crop safety, visual phytotoxicity

**Q.** What does the source list for `COC(=O)c1nc(-c2ccc(Cl)c(OC)c2F)cc(N)c1Cl` [Halauxifen-methyl, methyl 4-amino-3-chloro-6-(4-chloro-2-fluoro-3-methoxyphenyl)-2-pyridineccarboxylate]?
**A.** Mean % Visual Injury (Table 14, 27DAAA, halauxifen-methyl 5, quinclorac 101 g ae/ha, alone or mixed): 48.5%; Mean % Visual Injury (Table 14, 57DAAA, halauxifen-methyl 5, quinclorac 101 g ae/ha, alone or mixed): 30.3%; Mean % Visual Injury (Table 15, 7DAAA, halauxifen-methyl 5, clopyralid-olamine 150, quinclorac 101 g ae/ha, alone or mixed): 0.8%; Mean % Visual Injury (Table 15, 15DAAA, halauxifen-methyl 5, clopyralid-olamine 150, quinclorac 101 g ae/ha, alone or mixed): 50.5%; Mean % Visual Injury (Table 15, 27DAAA, halauxifen-methyl 5, clopyralid-olamine 150, quinclorac 101 g ae/ha, alone or mixed): 48.5%; Mean % Visual Injury (Table 15, 57DAAA, halauxifen-methyl 5, clopyralid-olamine 150, quinclorac 101 g ae/ha, alone or mixed): 30.3%; Mean % Visual Injury (Table 16, 7DAAA, halauxifen-methyl 5 g ae/ha, alone or plus isoxadifen-ethyl 5 g ae/ha): 0.8%; Mean % Visual Injury (Table 16, 15DAAA, halauxifen-methyl 5 g ae/ha, alone or plus isoxadifen-ethyl 5 g ae/ha): 50.5%; Mean % Visual Injury (Table 16, 27DAAA, halauxifen-methyl 5 g ae/ha, alone or plus isoxadifen-ethyl 5 g ae/ha): 48.5%; Mean % Visual Injury (Table 16, 57DAAA, halauxifen-methyl 5 g ae/ha, alone or plus isoxadifen-ethyl 5 g ae/ha): 30.3%; Mean % Visual Injury (Table 17, 7DAAA, halauxifen-methyl 5, clopyralid-olamine 150 g ae/ha alone, or both mixed with isoxadifen-ethyl 5 g ae/ha): 0.8%; Mean % Visual Injury (Table 17, 15DAAA, halauxifen-methyl 5, clopyralid-olamine 150 g ae/ha alone, or both mixed with isoxadifen-ethyl 5 g ae/ha): 50.5%; Mean % Visual Injury (Table 17, 27DAAA, halauxifen-methyl 5, clopyralid-olamine 150 g ae/ha alone, or both mixed with isoxadifen-ethyl 5 g ae/ha): 48.5%; Mean % Visual Injury (Table 17, 57DAAA, halauxifen-methyl 5, clopyralid-olamine 150 g ae/ha alone, or both mixed with isoxadifen-ethyl 5 g ae/ha): 30.3%; Mean % Visual Injury (Table 18, 8DAAA, halauxifen-methyl 5, clopyralid-olamine 150 g ae/ha, alone or mixed): 10%; Mean % Visual Injury (Table 18, 14DAAA, halauxifen-methyl 5, clopyralid-olamine 150 g ae/ha, alone or mixed): 24%; Mean % Visual Injury (Table 18, 40DAAA, halauxifen-methyl 5, clopyralid-olamine 150 g ae/ha, alone or mixed): 7%; Mean % Visual Injury (Table 18, 81DAAA, halauxifen-methyl 5, clopyralid-olamine 150 g ae/ha, alone or mixed): 6%; Mean % Visual Injury (Table 19, 8DAAA, halauxifen-methyl 5, clopyralid-olamine 150 g ae/ha alone, or both mixed with isoxadifen-ethyl 20 g ae/ha): 10%; Mean % Visual Injury (Table 19, 14DAAA, halauxifen-methyl 5, clopyralid-olamine 150 g ae/ha alone, or both mixed with isoxadifen-ethyl 20 g ae/ha): 24%; Mean % Visual Injury (Table 19, 40DAAA, halauxifen-methyl 5, clopyralid-olamine 150 g ae/ha alone, or both mixed with isoxadifen-ethyl 20 g ae/ha): 7%; Mean % Visual Injury (Table 19, 81DAAA, halauxifen-methyl 5, clopyralid-olamine 150 g ae/ha alone, or both mixed with isoxadifen-ethyl 20 g ae/ha): 6%; Mean % Visual Injury (Table 21, 8DAAA, halauxifen-methyl 5, quinclorac 101 g ae/ha, alone or mixed): 10%; Mean % Visual Injury (Table 21, 14DAAA, halauxifen-methyl 5, quinclorac 101 g ae/ha, alone or mixed): 24%; Mean % Visual Injury (Table 21, 40DAAA, halauxifen-methyl 5, quinclorac 101 g ae/ha, alone or mixed): 7%; Mean % Visual Injury (Table 21, 81DAAA, halauxifen-methyl 5, quinclorac 101 g ae/ha, alone or mixed): 6%; Mean % Visual Injury (Table 22, 8DAAA, halauxifen-methyl 5, clopyralid-olamine 150, quinclorac 101 g ae/ha, alone or mixed): 10%; Mean % Visual Injury (Table 22, 14DAAA, halauxifen-methyl 5, clopyralid-olamine 150, quinclorac 101 g ae/ha, alone or mixed): 24%; Mean % Visual Injury (Table 22, 40DAAA, halauxifen-methyl 5, clopyralid-olamine 150, quinclorac 101 g ae/ha, alone or mixed): 7%; Mean % Visual Injury (Table 22, 81DAAA, halauxifen-methyl 5, clopyralid-olamine 150, quinclorac 101 g ae/ha, alone or mixed): 6%; Mean % Visual Injury (Table 23, 7DAAA, halauxifen-methyl 5, clopyralid-olamine 150 g ae/ha, alone or mixed): 2.5%; Mean % Visual Injury (Table 23, 17DAAA, halauxifen-methyl 5, clopyralid-olamine 150 g ae/ha, alone or mixed): 3.0%; Mean % Visual Injury (Table 23, 49DAAA, halauxifen-methyl 5, clopyralid-olamine 150 g ae/ha, alone or mixed): 2.5%; Mean % Visual Injury (Table 24, 7DAAA, halauxifen-methyl 5, clopyralid-olamine 150 g ae/ha alone, or both mixed with isoxadifen-ethyl 20 g ae/ha): 2.5%; Mean % Visual Injury (Table 24, 17DAAA, halauxifen-methyl 5, clopyralid-olamine 150 g ae/ha alone, or both mixed with isoxadifen-ethyl 20 g ae/ha): 3.0%; Mean % Visual Growth Inhibition (Trial 1, 16DAA1, halauxifen-methyl 2.5, clopyralid-olamine 150 g ae/ha, alone or mixed): 1.5%; Mean % Visual Growth Inhibition (Trial 1, 30DAA1, halauxifen-methyl 2.5, clopyralid-olamine 150 g ae/ha, alone or mixed): 3.3%; Mean % Visual Growth Inhibition (Trial 1, 58DAA1, halauxifen-methyl 2.5, clopyralid-olamine 150 g ae/ha, alone or mixed): 1.0%; Mean % Visual Growth Inhibition (Trial 2, 32DAA1, halauxifen-methyl 0.62, clopyralid-olamine 150 g ae/ha, alone or mixed): 1.0%; Mean % Visual Growth Inhibition (Trial 2, 32DAA1, halauxifen-methyl 1.25, clopyralid-olamine 150 g ae/ha, alone or mixed): 3.8%; Mean % Visual Growth Inhibition (Trial 2, 32DAA1, halauxifen-methyl 2.5, clopyralid-olamine 150 g ae/ha, alone or mixed): 8.0%; Mean % Visual Growth Inhibition (Trial 2, 49DAA1, halauxifen-methyl 0.62, clopyralid-olamine 150 g ae/ha, alone or mixed): 0.3%; Mean % Visual Growth Inhibition (Trial 2, 49DAA1, halauxifen-methyl 1.25, clopyralid-olamine 150 g ae/ha, alone or mixed): 2.3%; Mean % Visual Growth Inhibition (Trial 2, 49DAA1, halauxifen-methyl 2.5, clopyralid-olamine 150 g ae/ha, alone or mixed): 2.5%; Mean % Visual Growth Inhibition (Trial 3, 8DAA1, halauxifen-methyl 5, clopyralid-olamine 150 g ae/ha, alone or mixed, line r23): 2.5%; Mean % Visual Growth Inhibition (Trial 3, 8DAA1, halauxifen-methyl 5, clopyralid-olamine 150 g ae/ha, alone or mixed, line r25): 1.5%; Mean % Visual Growth Inhibition (Trial 3, 8DAA1, halauxifen-methyl 10, clopyralid-olamine 150 g ae/ha, alone or mixed, line r22): 3.3%; Mean % Visual Growth Inhibition (Trial 3, 8DAA1, halauxifen-methyl 10, clopyralid-olamine 150 g ae/ha, alone or mixed, line r24): 2.3%; Mean % Visual Growth Inhibition (Trial 3, 17DAA1, halauxifen-methyl 5, clopyralid-olamine 150 g ae/ha, alone or mixed, line r27): 1.3%; Mean % Visual Growth Inhibition (Trial 3, 17DAA1, halauxifen-methyl 5, clopyralid-olamine 150 g ae/ha, alone or mixed, line r29): 1.5%; Mean % Visual Growth Inhibition (Trial 3, 17DAA1, halauxifen-methyl 10, clopyralid-olamine 150 g ae/ha, alone or mixed, line r26): 29.5%; Mean % Visual Growth Inhibition (Trial 3, 17DAA1, halauxifen-methyl 10, clopyralid-olamine 150 g ae/ha, alone or mixed, line r28): 2.8%; Mean % Visual Growth Inhibition (Trial 3, 35DAA1, halauxifen-methyl 10, clopyralid-olamine 150 g ae/ha, alone or mixed): 0.8%; Mean % Visual Growth Inhibition (Trial 3, 48DAA1, halauxifen-methyl 5, clopyralid-olamine 150 g ae/ha, alone or mixed, line r31): 1.8%; Mean % Visual Growth Inhibition (Trial 3, 48DAA1, halauxifen-methyl 5, clopyralid-olamine 150 g ae/ha, alone or mixed, line r32): 1.5%; Mean % Visual Growth Inhibition (Trial 4, 13DAA1, halauxifen-methyl 10, clopyralid-olamine 150 g ae/ha, alone or mixed, line r33): 57.5%; Mean % Visual Growth Inhibition (Trial 4, 13DAA1, halauxifen-methyl 10, clopyralid-olamine 150 g ae/ha, alone or mixed, line r34): 31.3%; Mean % Visual Growth Inhibition (Trial 5, 7DAA1, halauxifen-methyl 0.62, clopyralid-olamine 150 g ae/ha, alone or mixed): 1.0%; Mean % Visual Growth Inhibition (Trial 5, 7DAA1, halauxifen-methyl 1.25, clopyralid-olamine 150 g ae/ha, alone or mixed): 1.5%; Mean % Visual Growth Inhibition (Trial 5, 7DAA1, halauxifen-methyl 2.5, clopyralid-olamine 150 g ae/ha, alone or mixed): 1.5%; Mean % Visual Growth Inhibition (Trial 5, 7DAA1, halauxifen-methyl 5, clopyralid-olamine 150 g ae/ha, alone or mixed): 2.0%; Mean % Visual Growth Inhibition (Trial 6, 33DAA1, halauxifen-methyl 5, clopyralid-olamine 150 g ae/ha, alone or mixed): 4.5%; Mean % Visual Growth Inhibition (Trial 7, 8DAA1, halauxifen-methyl 5, clopyralid-olamine 150 g ae/ha, alone or mixed): 8.0%; Mean % Visual Growth Inhibition (Trial 7, 15DAA1, halauxifen-methyl 0.62, clopyralid-olamine 150 g ae/ha, alone or mixed): 2.5%; Mean % Visual Growth Inhibition (Trial 7, 15DAA1, halauxifen-methyl 5, clopyralid-olamine 150 g ae/ha, alone or mixed): 15.5%; Mean % Visual Growth Inhibition (Trial 8, 7DAA1, halauxifen-methyl 5, clopyralid-olamine 150 g ae/ha, alone or mixed): 7.5%; Mean % Visual Growth Inhibition (Trial 8, 7DAA1, halauxifen-methyl 10, clopyralid-olamine 150 g ae/ha, alone or mixed, line r44): 9.0%; Mean % Visual Growth Inhibition (Trial 8, 7DAA1, halauxifen-methyl 10, clopyralid-olamine 150 g ae/ha, alone or mixed, line r45): 3.5%; Mean % Visual Growth Inhibition (Trial 8, 7DAA1, halauxifen-methyl 10, clopyralid-olamine 150 g ae/ha, alone or mixed, line r46): 2.0%; Mean % Visual Growth Inhibition (Trial 8, 7DAA1, halauxifen-methyl 10, clopyralid-olamine 150 g ae/ha, alone or mixed, line r47): 1.5%; Mean % Visual Growth Inhibition (Trial 8, 15DAA1, halauxifen-methyl 5, clopyralid-olamine 150 g ae/ha, alone or mixed): 20.0%; Mean % Visual Growth Inhibition (Trial 8, 15DAA1, halauxifen-methyl 10, clopyralid-olamine 150 g ae/ha, alone or mixed, line r49): 6.0%; Mean % Visual Growth Inhibition (Trial 8, 15DAA1, halauxifen-methyl 10, clopyralid-olamine 150 g ae/ha, alone or mixed, line r50): 2.0%; Mean % Visual Growth Inhibition (Trial 9, 23DAA1, halauxifen-methyl 2.5, clopyralid-olamine 150 g ae/ha, alone or mixed): 35.0%; Mean % Visual Growth Inhibition (Trial 9, 23DAA1, halauxifen-methyl 5, clopyralid-olamine 150 g ae/ha, alone or mixed): 50.0%; Mean % Visual Growth Inhibition (Trial 9, 33DAA1, halauxifen-methyl 5, clopyralid-olamine 150 g ae/ha, alone or mixed): 25.0%; Mean % Visual Growth Inhibition (Trial 9, 59DAA1, halauxifen-methyl 5, clopyralid-olamine 150 g ae/ha, alone or mixed): 6.3%; Mean % Visual Growth Inhibition (Trial 10, 17DAA1, halauxifen-methyl 5, clopyralid-olamine 100 g ae/ha, alone or mixed): 46.7%; Mean % Visual Growth Inhibition (Trial 10, 17DAA1, halauxifen-methyl 5, clopyralid-olamine 150 g ae/ha, alone or mixed): 46.7%; Mean % Visual Growth Inhibition (Trial 10, 17DAA1, halauxifen-methyl 5, clopyralid-olamine 200 g ae/ha, alone or mixed): 46.7%; Mean % Visual Growth Inhibition (Trial 10, 27DAA1, halauxifen-methyl 5, clopyralid-olamine 150 g ae/ha, alone or mixed): 16.7%; Mean % Visual Growth Inhibition (Trial 10, 27DAA1, halauxifen-methyl 5, clopyralid-olamine 200 g ae/ha, alone or mixed): 16.7%; Mean % Visual Growth Inhibition (Trial 11, 7DAA1, halauxifen-methyl 5, clopyralid-olamine 150 g ae/ha, alone or mixed): 1.3%; Mean % Visual Growth Inhibition (Trial 11, 15DAA1, halauxifen-methyl 0.62, clopyralid-olamine 150 g ae/ha, alone or mixed): 2.0%; Mean % Visual Growth Inhibition (Trial 11, 15DAA1, halauxifen-methyl 1.25, clopyralid-olamine 150 g ae/ha, alone or mixed): 6.5%; Mean % Visual Growth Inhibition (Trial 12, 15DAA1, halauxifen-methyl 10, clopyralid-olamine 150 g ae/ha, alone or mixed): 25.0%; Mean % Visual Growth Inhibition (Trial 12, 27DAA1, halauxifen-methyl 5, clopyralid-olamine 150 g ae/ha, alone or mixed): 5.8%
